# According to article PMC4591263, “The GSTome Reflects the Chemical Environment of White-Rot Fungi” (PLoS ONE, 2015):
# Key:
# Assay in all cases: GSH conjugation of CDNB, Michaelis-Menten fit
# Assay type in all cases: biochemical
# Details in all cases: saturating GSH
# TvGSTO-6S = target: T1, TvGSTO-6S (Trametes versicolor, UniProt A0A384E158)
# T1 construct: synthetic gene in pET-26b (NdeI/NotI), C-terminal His-tag, E. coli Rosetta2 (DE3) pLysS
# T1 sequence (A0A384E158 1-246): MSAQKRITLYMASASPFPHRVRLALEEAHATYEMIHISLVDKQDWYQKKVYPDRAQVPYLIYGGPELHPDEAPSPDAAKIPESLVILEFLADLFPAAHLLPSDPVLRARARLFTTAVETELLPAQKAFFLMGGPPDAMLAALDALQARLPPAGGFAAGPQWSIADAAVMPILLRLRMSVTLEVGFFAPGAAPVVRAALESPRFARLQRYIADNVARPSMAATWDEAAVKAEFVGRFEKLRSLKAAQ
# TvGSTO-1S = target: T2, TvGSTO-1S (Trametes versicolor, UniProt R7S9J3)
# T2 construct: gene TRAVEDRAFT_75639; synthetic gene in pET-26b (NdeI/NotI), C-terminal His-tag, E. coli Rosetta2 (DE3) pLysS
# T2 sequence (R7S9J3 1-256): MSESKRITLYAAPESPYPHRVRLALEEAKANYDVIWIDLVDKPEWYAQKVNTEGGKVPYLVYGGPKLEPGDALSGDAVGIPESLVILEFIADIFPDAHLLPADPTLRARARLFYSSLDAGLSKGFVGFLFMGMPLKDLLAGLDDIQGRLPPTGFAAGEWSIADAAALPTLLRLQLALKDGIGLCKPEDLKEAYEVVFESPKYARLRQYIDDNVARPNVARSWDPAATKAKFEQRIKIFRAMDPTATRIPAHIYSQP
# TvGSTO-3S = target: T3, TvGSTO-3S (Trametes versicolor, UniProt A0A384E145)
# T3 construct: synthetic gene in pET-26b (NdeI/NotI), C-terminal His-tag, E. coli Rosetta2 (DE3) pLysS
# T3 sequence (A0A384E145 1-240): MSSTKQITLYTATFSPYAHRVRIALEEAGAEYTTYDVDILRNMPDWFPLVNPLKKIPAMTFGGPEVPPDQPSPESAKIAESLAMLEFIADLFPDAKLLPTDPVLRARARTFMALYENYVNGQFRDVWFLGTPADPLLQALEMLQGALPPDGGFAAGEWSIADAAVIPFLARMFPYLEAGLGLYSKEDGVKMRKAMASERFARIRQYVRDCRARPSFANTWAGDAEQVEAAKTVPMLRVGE
structure (smiles),measurement,setting,value
"O=[N+]([O-])c1ccc(Cl)c([N+](=O)[O-])c1 [CDNB, 1-chloro-2,4-dinitrobenzene]",Km,TvGSTO-6S,All proteins exhibit an activity against CDNB
same,Km,TvGSTO-1S,All proteins exhibit an activity against CDNB
same,Km,TvGSTO-3S,All proteins exhibit an activity against CDNB
